Source: US9207296B2, “Methods and apparatus for pasadena hyperpolarization” (Huntington Medical Research Institutes, priority 2008, dated 2015)
Values joined by “and” are separate entries in the source; they are usually repeats but may differ in a detail not shown here. Identical values can stand only once. Like-named read-outs stand apart in the source and are kept apart here.

Columns and labels:
[1] = T1 decay of hyperpolarization (small angle FID series); assay type: physicochemical
rat brain = conditions: rapid ante-grade injection into common carotid artery, 1 mL, overlaid on 1H MRI
[2] = for 13C signal enhancement (nascent): at 4.7 T, relative to thermal polarization; for 13C polarization achieved (maximal): best value after calibration
Protocol: A number of strategies have been employed to quantify the extent of hyperpolarization [Association N.E.M. Determination of signal-to-noise ratio (SNR) in diagnostic magnetic resonance imaging. NEMA Standards, Publication MS 1-2001 (2001)]. In the present application, the following convention was applied. The signal enhancement (ηobserved) achieved by hyperpolarization was quantified in respect to the signal of a thermally polarized sample (100% ethanol, 188 mM of natural abundance ^13C at each site (Eq. 7)). The signal intensities were determined by numerical integration (xWINNMR software, Bruker Biospin, Germany)
[formula] (where IHP, Iref, CHP and Cref are integral intensities and molar concentrations of hyperpolarized and reference samples, respectively).
The decay of ^13C polarization caused by longitudinal relaxation (T1) of the hyperpolarized sample during the delivery to the detection system was determined (FIG. 15). This allows for the determination of the nascent signal enhancement (Eq. 8), and nascent level of achieved polarization (Eq. 9).
Unless otherwise indicated, PHP^t=0 and η^t=0 are reported in the work presented, using a ^13C polarization of PBoltzmann=0.00041% or 4.1 ppm at 298K and 4.7 T. T1 values for the […] reagent concerned in calibration and quality assurance (“QA”) were determined directly. A series of small angle (α≈8°) FID experiments was employed to probe the decay of the magnetization of the hyperpolarized agents (small excitation angle approximation, SEA). The T1 values were extracted by the fit of Equation 10 (Eq. 10) to the data points, taking into account the loss of magnetization caused by the excitation pulses.
Delivering hyperpolarized sample and triggered detection in the NMR scanner were further optimized. The polarizer was moved to the in vivo suite, where it was positioned carefully 7.63 m+0.5 cm from a small-animal horizontal bore, high field MRI (4.7T Bruker MRI scanner). An automated system was implemented, whereby the hyperpolarized solution was driven by remaining gas pressure in the reactor, through polyethelene (PE) tubing from the polarizer to an NMR-tube in a dual-tuned ^1H/^13C solenoid coil in the MR scanner; where after a precise interval (33 seconds) acquisition was triggered. The solution was then drained to permit successive experiments without coil repositioning.
Peak amplitude was quantified by comparison with the spectrum of ethanol (FIG. 16), using the equations described herein.

[3] = 13C spin storage followed by refocused INEPT polarization transfer to 1H; assay type: physicochemical; conditions: for initial 13C polarization: 2.4 mL sample, polarizer at 1.76 mT; for T1 during 13C spin storage: FIG. 20 samples, […] succinate / 2.9 mM TFPP; for 13C polarization after storage: after 70 s (succinate) or 24 s (TFPP), 12° excitation pulse; for 13C polarization after storage / net 1H NMR signal enhancement / final 13C signal enhancement: 4.7 T; for net 1H NMR signal enhancement: after refocused INEPT; for final 13C signal enhancement: after storage; for increase of overall sensitivity by proton detection: factor versus hyperpolarized 13C detection; for polarization transfer efficiency 13C to 1H: refocused INEPT
From the text: Specifically, the present subject matter hyperpolarized the ^13C site of two well studied molecules, 1-^13C-succinate-d2 and 2,2,3,3-tetrafluoropropyl 1-^13C-propionate-d3 (TFPP), by […].
Hyperpolarization was then kept on ^13C for 70 s. During this time, the polarized sample was transferred from a low magnetic field polarizer operating at 1.76 mT to 4.7 T animal MR scanner. […] Then the refocused INEPT pulse sequence^10 with τINEPT=34 ms and τrefocus=32 ms (FIG. 19) was used to transfer polarization from ^13C to protons within 1-^13C-succinate-d2 (FIG. 20A and FIG. 20B). […] The delays of the refocused INEPT were τINEPT=20 ms and τrefocus=16 ms.

CC[13C](=O)OCCO [HEP, reference compound]
T1 decay time in D2O ([1]; D2O, pH 7, B0=4.7 T): 70 s | T1 decay time in H2O ([1]; H2O, pH 7, B0=4.7 T): 50 s

O=C(O)CCC(=O)O [1-^13C-SUCC-d2,3, 1-^13C-succinate-d2,3]
distribution of 13C image signal in vivo (rat brain): appeared in the anatomical distribution coincident with the rat brain | effect of concentration on level of hyperpolarization ([2]; 1.65-2.89 mM in water, 0.96-2.93 mM in D2O): No effect | 13C signal enhancement at the point of measurement ([2]; 4.7 T, 33 s after production): 15,900 fold | PHP^t=0 average nascent polarization, stated in H2O ([2]; 16 experiments, in H2O before B1 calibration as printed): 15.3 ±1.9% | polarization at the point of measurement in water ([2]; H2O, mean delay 33 s): 5.4 ±1.3% | 13C signal enhancement (nascent) [2]: 49,000 fold and 37,400 ±4,600 fold | 13C signal enhancement (nascent) ([2]; listed as 13C succinate): 47,000 fold | 13C polarization achieved (maximal) ([2]; listed as 1-^13C succinate): 18% | 13C polarization achieved (maximal) ([2]; listed as 13C succinate): 19% | T1 of hyperpolarized 13C signal in D2O ([1]; D2O, pH 3, B0=4.7 T, N=4): 40 ± 2 s | T1 of hyperpolarized 13C signal in H2O ([1]; H2O, pH 3, B0=4.7 T, N=3, 1-3 mM SUC, 2.5 mM catalyst): 27 ± 3 s | T1 when buffered to physiological pH ([1]; buffered to pH 7 immediately before detection, preliminary): ~50 s | initial 13C polarization [3]: 10.7% | T1 during 13C spin storage [3]: 105 s | 13C polarization after storage [3]: 5.5% | net 1H NMR signal enhancement [3]: 1,350 fold | final 13C signal enhancement [3]: 13,500 fold | increase of overall sensitivity by proton detection [3]: 6.5 | polarization transfer efficiency 13C to 1H [3]: 41%

[2H]C([2H])C([2H])[13C](=O)OCC(F)(F)C(F)F (stereo not shown) [TFPP, 2,2,3,3-tetrafluoropropyl 1-^13C-propionate-d3]
initial 13C polarization [3]: 14% | T1 during 13C spin storage [3]: 67 s | 13C polarization after storage [3]: 9.5% | net 1H NMR signal enhancement [3]: 2,930 fold | final 13C signal enhancement [3]: 23,300 fold | increase of overall sensitivity by proton detection [3]: 7.9 | polarization transfer efficiency 13C to 1H [3]: 50% and 51%
